Key:
[1] = test system: chick embryo yolk sac membrane (YSM) blood vessels; assay: In ovo chick embryo yolk sac membrane (YSM) angiogenesis model; type: in vivo, white Leghorn breed of fowls; conditions: all tested concentrations, 24 hr after treatment, in comparison with control
[2] = Bulk density, ASTM D6683-19; type: physicochemical
[3] = patients; cited from earlier work

Substance | number of quaternary blood vessels [1] | bulk density [2] | dyspepsia [3] | elevation in liver enzymes [3] | headache [3] | herpes zoster reactivation [3] | menorrhagia [3] | rash [3]
Avastin: monoclonal antibody targeted against VEGF, approved by FDA for therapeutic intervention in cancer | significant decrease | – | – | – | – | – | – | –
Arsenic tri oxide [ATO] | – | 1.3336 g/mL | 24% | 42% | 29% | 13% | 4% | 11%
